# Legend:
# [1] = biological target: T1, PI3Kα (Homo sapiens, UniProt P42336); test: PI3 Kinase HTRF assay, PI3Kα; format: biochemical; conditions: Between 1 μM and 10 μM; read-out: PI3K α IC50
# T1 construct: purchased Millipore Corporation 14-602-K
# Source text: (§1) A PI3-Kinase HTRF® assay kit (cat No. 33-016) purchased from Millipore Corporation was used to screen compounds provided herein. This assay used specific, high affinity binding of the GRP1 pleckstrin homology (PH) domain to PIP3, the product of a Class 1A or 1B PI3 Kinase acting on its physiological substrate PIP2. During the detection phase of the assay, a complex was generated between the GST-tagged PH domain and biotinylated short chain PIP3. The biotinylated PIP3 and the GST-tagged PH domain recruited fluorophores (Streptavidin-Allophycocyanin and Europium-labeled anti-GST respectively) to form the fluorescence resonance energy transfer (FRET) architecture, generating a stable time-resolved FRET signal. The FRET complex was disrupted in a competitive manner by non-biotinylated PIP3, a product formed in the PI3 Kinase assay.
# (§2) PI3 Kinase α, β, γ and δ activity was assayed using the PI3 Kinase HTRF® assay kit (catalogue No. 33-016) purchased from Millipore Corporation. Purified recombinant PI3Kα (catalogue No. 14-602-K), PI3Kβ (catalogue No. 14-603-K), PI3Kγ (catalogue No. 14-558-K) and PI3Kδ (catalogue No. 14-604-K) were obtained from Millipore Corporation. Purified recombinant PI3K enzyme was used to catalyze the phosphorylation of phosphatidylinositol 4,5-bisphosphate (PIP2 at 10 μM) to phosphatidylinositol 3,4,5-trisphosphate (PIP3) in the presence of 10 μM ATP. The assay was carried out in 384-well format and detected using a Perkin Elmer EnVision Xcite Multilabel Reader. Emission ratios were converted into percent inhibitions and imported into GraphPad Prism software. The concentration necessary to achieve inhibition of enzyme activity by 50% (IC50) was calculated using concentrations ranging from 20 μM to 0.1 nM (12-point curve). IC50 values were determined using a nonlinear regression model available in GraphPad Prism 5.
# [2] = biological target: T2, PI3Kβ (Homo sapiens, UniProt P42338); test: PI3 Kinase HTRF assay, PI3Kβ; format: biochemical; conditions: Between 1 μM and 10 μM; read-out: PI3K β IC50
# T2 construct: purchased Millipore Corporation 14-603-K
# Source text: as §1, §2
# [3] = test system: Balb/c splenic B cells; test: B cell activation and proliferation assay (Alamar Blue); format: cell-based; conditions: Mus musculus
# Method: The ability of one or more subject compounds to inhibit B cell activitation and proliferation is determined according to standard procedures known in the art. For example, an in vitro cellular proliferation assay is established that measures the metabolic activity of live cells. The assay is performed in a 96 well microtiter plate using Alamar Blue reduction. Balb/c splenic B cells are purified over a Ficoll-Paque™ PLUS gradient followed by magnetic cell separation using a MACS B cell Isolation Kit (Miletenyi). Cells are plated in 90 μl at 50,000 cells/well in B Cell Media (RPMI+10% FBS+Penn/Strep+50 μM bME+5 mM HEPES). A compound provided herein is diluted in B Cell Media and added in a 10 μl volume. Plates are incubated for 30 min at 37° C. and 5% CO2 (0.2% DMSO final concentration). A 50 μl B cell stimulation cocktail is then added containing either 10 μg/ml LPS or 5 μg/ml F(ab′)2 Donkey anti-mouse IgM plus 2 ng/ml recombinant mouse IL4 in B Cell Media. Plates are incubated for 72 hours at 37° C. and 5% CO2. A volume of 15 μL of Alamar Blue reagent is added to each well and plates are incubated for 5 hours at 37° C. and 5% CO2. Alamar Blue fluoresce is read at 560Ex/590Em, and IC50 or EC50 values are calculated using GraphPad Prism 5.
# [4] = biological target: T3, PI3Kγ (Homo sapiens, UniProt P48736); test: PI3 Kinase HTRF assay, PI3Kγ; format: biochemical; conditions: Between 1 μM and 10 μM; read-out: PI3K γ IC50
# T3 construct: purchased Millipore Corporation 14-558-K
# Source text: as §1, §2
# [5] = test system: phospho-AKT in RAJI cells; test: PI3Kδ selective cellular assay, phospho-AKT in anti-IgM stimulated RAJI cells; format: cell-based; conditions: Homo sapiens; RAJI cell model
# Source text: A compound's ability in selectively inhibiting PI3Kδ can be assessed using RAJI cells, i.e., B lymphocyte cells derived from lymphoma patients. Briefly, serum-starved RAJI cells are stimulated with anti-human IgM, thereby causing signaling through the B-cell receptors, as described in, for example, He et al., Leukemia Research (2009) 33: 798-802. B-cell receptor signaling is important for the activation, differentiation, and survival of B cells and certain B-cell derived cancers. Reduction of phospho-AKT is indicative of compounds that may inhibit B-cell proliferation and function in certain diseases. By monitoring the reduction of phospho-AKT in stimulated RAJI cells (using for example, phospho-AKT antibodies), a compound's potential efficacy in selectively inhibiting PI3Kδ can be assessed.
# Certain compounds provided herein (e.g., Compounds 5, 38, 103, 105, 106, 107, 108, and 109) were tested in RAJI cell model using procedures as described above.
# [6] = test system: phospho-AKT in RAW 264.7 cells; test: PI3Kγ selective cellular assay, phospho-AKT in C5a stimulated RAW 264.7 cells; format: cell-based; conditions: Mus musculus, RAW264.7, RAW 264.7 cell model
# Source text: A compound's ability in selectively inhibiting PI3Kγ can be assessed using RAW264.7 macrophages. Briefly, serum-starved PAW264.7 cells are stimulated with a known GPCR agonist C5a. (See, e.g., Camps et al., Nature Medicine (2005) 11(9): 936-943). Cells can be treated with test compounds prior to, simultaneously with, or subsequent to the stimulation by C5a. RAW 264.7 cells respond to the complement component fragment C5a through activation of the C5a receptor, and the C5a receptor activates macrophages and induces cell migration. Test compounds' ability to inhibit C5a-mediated AKT phosphorylation is indicative of selective inhibition of PI3Kγ. Thus, by monitoring the reduction of phospho-AKT in stimulated RAW 264.7 cells (using for example, phospho-AKT antibodies), a compound's potential efficacy in selectively inhibiting PI3Kγ can be assessed.
# Certain compounds provided herein (e.g., Compounds 5, 38, 103, 105, 106, 107, 108, and 109) were tested in RAW 264.7 cell model using procedures as described above.
# [7] = range between 100 nM and 1 μM (bounds carry own units)
# T2 sequence (P42338 whole entry): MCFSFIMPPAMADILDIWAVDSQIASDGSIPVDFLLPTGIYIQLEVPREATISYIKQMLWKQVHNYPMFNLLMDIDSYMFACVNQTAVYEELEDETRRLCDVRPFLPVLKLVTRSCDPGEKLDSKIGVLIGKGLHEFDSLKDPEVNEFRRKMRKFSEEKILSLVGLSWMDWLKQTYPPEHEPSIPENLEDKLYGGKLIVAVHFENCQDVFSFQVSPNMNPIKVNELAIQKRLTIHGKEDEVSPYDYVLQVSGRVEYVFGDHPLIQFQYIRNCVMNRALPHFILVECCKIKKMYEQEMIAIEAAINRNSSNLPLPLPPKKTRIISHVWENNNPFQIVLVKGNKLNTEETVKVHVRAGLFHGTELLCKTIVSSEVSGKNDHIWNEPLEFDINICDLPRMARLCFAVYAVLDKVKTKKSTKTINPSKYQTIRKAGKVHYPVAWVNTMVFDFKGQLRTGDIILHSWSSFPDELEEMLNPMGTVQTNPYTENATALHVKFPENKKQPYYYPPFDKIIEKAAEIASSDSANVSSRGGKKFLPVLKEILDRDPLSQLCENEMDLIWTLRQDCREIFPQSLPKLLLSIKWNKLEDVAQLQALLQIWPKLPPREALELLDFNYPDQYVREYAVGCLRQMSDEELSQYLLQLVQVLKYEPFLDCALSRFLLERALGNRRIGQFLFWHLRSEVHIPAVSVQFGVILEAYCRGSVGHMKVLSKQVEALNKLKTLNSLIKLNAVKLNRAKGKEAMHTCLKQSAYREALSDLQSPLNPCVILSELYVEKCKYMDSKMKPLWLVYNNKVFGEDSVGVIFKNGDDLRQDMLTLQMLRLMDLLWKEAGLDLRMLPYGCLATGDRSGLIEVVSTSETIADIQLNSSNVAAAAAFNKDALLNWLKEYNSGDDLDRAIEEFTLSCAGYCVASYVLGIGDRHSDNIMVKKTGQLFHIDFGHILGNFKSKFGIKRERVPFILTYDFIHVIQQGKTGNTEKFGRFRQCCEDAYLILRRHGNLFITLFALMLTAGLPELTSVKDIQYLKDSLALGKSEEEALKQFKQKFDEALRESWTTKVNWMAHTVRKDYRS
# T2 sequence (P27986 2-724 partner limits assumed): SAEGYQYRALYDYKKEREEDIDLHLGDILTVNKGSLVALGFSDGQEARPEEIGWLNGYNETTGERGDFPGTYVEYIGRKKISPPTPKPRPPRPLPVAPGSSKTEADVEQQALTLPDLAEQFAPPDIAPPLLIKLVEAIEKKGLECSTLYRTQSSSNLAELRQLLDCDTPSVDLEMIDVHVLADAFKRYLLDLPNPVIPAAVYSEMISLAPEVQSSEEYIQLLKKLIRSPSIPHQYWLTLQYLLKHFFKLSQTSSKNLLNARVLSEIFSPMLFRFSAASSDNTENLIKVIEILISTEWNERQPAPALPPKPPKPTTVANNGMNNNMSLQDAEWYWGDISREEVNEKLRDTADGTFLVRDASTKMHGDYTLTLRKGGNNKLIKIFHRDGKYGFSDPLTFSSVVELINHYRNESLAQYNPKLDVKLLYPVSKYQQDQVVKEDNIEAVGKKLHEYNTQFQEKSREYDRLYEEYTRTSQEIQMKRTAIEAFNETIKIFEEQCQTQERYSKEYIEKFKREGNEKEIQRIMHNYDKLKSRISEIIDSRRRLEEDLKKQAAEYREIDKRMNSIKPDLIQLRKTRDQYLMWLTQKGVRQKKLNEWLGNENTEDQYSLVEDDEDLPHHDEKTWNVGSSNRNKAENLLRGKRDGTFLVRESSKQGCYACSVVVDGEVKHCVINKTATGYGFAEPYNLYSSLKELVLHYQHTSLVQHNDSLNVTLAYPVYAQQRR
# T1 sequence (P42336 whole entry): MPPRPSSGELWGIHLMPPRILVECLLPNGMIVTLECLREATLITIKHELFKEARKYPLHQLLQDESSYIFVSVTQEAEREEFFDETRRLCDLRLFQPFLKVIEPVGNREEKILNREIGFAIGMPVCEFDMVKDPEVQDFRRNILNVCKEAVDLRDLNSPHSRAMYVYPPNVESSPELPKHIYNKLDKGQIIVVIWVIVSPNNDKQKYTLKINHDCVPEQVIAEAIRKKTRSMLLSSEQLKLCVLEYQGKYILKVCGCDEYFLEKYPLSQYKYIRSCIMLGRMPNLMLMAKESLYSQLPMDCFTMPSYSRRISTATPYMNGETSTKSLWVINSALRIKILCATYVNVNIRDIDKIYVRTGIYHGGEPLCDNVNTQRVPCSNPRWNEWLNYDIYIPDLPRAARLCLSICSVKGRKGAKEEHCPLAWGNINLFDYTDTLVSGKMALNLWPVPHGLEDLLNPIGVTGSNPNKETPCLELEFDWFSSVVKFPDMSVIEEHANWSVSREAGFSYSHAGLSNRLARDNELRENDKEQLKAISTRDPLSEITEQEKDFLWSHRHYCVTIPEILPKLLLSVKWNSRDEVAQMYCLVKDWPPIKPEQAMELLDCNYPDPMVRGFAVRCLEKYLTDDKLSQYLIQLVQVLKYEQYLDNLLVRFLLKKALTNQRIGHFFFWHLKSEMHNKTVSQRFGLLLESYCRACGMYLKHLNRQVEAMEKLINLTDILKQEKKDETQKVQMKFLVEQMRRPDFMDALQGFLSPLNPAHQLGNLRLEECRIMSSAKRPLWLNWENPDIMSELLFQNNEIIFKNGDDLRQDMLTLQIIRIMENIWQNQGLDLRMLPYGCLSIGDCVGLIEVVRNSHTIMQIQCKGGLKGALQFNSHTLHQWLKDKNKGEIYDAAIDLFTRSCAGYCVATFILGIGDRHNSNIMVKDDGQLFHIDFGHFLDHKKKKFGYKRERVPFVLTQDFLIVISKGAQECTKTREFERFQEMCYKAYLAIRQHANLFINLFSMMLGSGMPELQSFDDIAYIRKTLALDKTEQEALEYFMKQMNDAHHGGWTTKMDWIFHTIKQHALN
# T1 sequence (P27986 whole entry partner): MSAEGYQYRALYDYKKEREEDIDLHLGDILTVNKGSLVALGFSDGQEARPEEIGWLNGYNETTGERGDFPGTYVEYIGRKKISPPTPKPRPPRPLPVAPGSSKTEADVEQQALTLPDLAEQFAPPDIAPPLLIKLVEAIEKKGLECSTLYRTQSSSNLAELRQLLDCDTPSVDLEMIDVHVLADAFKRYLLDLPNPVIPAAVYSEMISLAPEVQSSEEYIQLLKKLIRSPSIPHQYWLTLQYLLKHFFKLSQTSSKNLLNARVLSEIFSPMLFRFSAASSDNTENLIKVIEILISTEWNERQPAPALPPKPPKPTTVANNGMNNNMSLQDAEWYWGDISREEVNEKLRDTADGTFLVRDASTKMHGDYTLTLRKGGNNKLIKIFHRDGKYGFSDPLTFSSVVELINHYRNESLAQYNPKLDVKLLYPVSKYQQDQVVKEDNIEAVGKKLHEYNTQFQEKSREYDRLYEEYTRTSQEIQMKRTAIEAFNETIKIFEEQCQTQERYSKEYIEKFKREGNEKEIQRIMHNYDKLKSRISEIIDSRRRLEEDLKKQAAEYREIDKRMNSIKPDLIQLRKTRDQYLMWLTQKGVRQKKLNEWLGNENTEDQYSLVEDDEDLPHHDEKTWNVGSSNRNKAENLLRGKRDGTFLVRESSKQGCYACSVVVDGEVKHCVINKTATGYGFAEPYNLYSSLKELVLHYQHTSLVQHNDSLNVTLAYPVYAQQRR
# T3 sequence (P48736 whole entry): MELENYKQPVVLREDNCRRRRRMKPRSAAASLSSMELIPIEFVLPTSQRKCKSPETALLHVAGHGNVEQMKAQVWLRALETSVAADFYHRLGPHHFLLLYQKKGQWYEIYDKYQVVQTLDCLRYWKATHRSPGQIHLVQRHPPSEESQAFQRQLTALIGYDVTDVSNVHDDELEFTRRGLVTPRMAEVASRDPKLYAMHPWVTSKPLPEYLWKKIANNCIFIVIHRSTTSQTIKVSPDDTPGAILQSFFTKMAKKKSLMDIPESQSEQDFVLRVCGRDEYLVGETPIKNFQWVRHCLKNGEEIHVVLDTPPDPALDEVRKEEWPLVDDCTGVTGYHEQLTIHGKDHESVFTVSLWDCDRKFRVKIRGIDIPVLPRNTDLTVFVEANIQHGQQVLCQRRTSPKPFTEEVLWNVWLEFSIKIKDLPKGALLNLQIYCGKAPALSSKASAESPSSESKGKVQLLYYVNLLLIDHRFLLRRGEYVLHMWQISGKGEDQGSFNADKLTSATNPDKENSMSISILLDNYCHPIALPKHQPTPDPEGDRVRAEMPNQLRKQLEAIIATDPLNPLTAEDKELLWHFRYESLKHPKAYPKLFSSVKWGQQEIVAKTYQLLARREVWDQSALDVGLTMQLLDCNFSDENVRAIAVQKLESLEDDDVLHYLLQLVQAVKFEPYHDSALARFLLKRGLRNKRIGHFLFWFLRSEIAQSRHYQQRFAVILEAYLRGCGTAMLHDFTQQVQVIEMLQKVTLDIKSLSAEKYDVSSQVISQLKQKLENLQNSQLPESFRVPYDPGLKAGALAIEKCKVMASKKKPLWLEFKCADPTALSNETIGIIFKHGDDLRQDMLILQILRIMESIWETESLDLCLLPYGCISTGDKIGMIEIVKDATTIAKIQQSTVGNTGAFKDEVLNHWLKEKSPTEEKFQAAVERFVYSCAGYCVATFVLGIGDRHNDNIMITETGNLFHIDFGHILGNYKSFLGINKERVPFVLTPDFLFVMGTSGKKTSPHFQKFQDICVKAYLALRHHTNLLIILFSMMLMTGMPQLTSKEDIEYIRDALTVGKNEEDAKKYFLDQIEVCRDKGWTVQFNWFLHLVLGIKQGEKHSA
SMILES,IC50 [1],IC50 [2],EC50 ([3]; Less than 100 nanoMolar),other results
Cc1ccc(-c2cccc3cc([C@H](C)Nc4ncnc5scnc45)n(-c4ccccc4)c(=O)c23)cn1 [Compound 6],1 to 10 µM,1 to 10 µM,< 100 nM,
C[C@H](Nc1ncnc2scnc12)c1cc2cccc(-c3cnn(C)c3)c2c(=O)n1-c1cccc(F)c1 [Compound 10],1 to 10 µM,1 to 10 µM,< 100 nM,
Cc1nsc2cc(C(C)Nc3ncnc4scnc34)n(-c3ccccc3)c(=O)c12 (stereo not drawn) [Compound 12],,1 to 10 µM,< 100 nM,IC50 [4]: 1 to 10 µM
Cc1c(-c2cccc3cc([C@H](C)Nc4ncnc5scnc45)n(-c4ccccc4)c(=O)c23)cnn1C [Compound 43],1 to 10 µM,1 to 10 µM,< 100 nM,
COc1ccc(-c2cccc3cc([C@H](C)Nc4ncnc5scnc45)n(-c4ccccc4)c(=O)c23)cc1 [Compound 44],1 to 10 µM,1 to 10 µM,< 100 nM,
C[C@H](Nc1ncnc2scnc12)c1cc2cccc(-c3cnn(CCN4CCOCC4)c3)c2c(=O)n1-c1ccccc1 [Compound 48],1 to 10 µM,,< 100 nM,
C[C@H](Nc1ncnc2scnc12)c1cc2cccc(/C=C/c3ccccc3)c2c(=O)n1-c1ccccc1 [Compound 49],1 to 10 µM,1 to 10 µM,,EC50 ([3]; Between 100 nM and 1 μM): 100 to 1000 nM
C[C@H](Nc1ncnc2scnc12)c1cc2cccc(-c3cnc(OCc4ccccc4)nc3)c2c(=O)n1-c1ccccc1 [Compound 53],1 to 10 µM,1 to 10 µM,< 100 nM,
COc1ncc(-c2cccc3cc([C@H](C)Nc4ncnc5scnc45)n(-c4ccccc4)c(=O)c23)cc1C [Compound 56],1 to 10 µM,1 to 10 µM,< 100 nM,
COc1ncc(-c2cccc3cc([C@H](C)Nc4ncnc5scnc45)n(-c4ccccc4)c(=O)c23)cc1C(F)(F)F [Compound 58],1 to 10 µM,1 to 10 µM,< 100 nM,
COc1ncc(-c2cccc3cc([C@H](C)Nc4ncnc5scnc45)n(-c4cccc(F)c4)c(=O)c23)cn1 [Compound 60],1 to 10 µM,,< 100 nM,
COc1ncc(-c2cccc3cc([C@H](C)Nc4ncnc5scnc45)n(C4CC4)c(=O)c23)cn1 [Compound 61],1 to 10 µM,1 to 10 µM,< 100 nM,
Cc1ncc(-c2cccc3cc([C@H](C)Nc4ncnc5scnc45)n(C4CC4)c(=O)c23)cn1 [Compound 62],1 to 10 µM,1 to 10 µM,< 100 nM,
C[C@H](Nc1ncnc2scnc12)c1cc2cccc(Cl)c2c(=O)n1C [Compound 81],1 to 10 µM,,< 100 nM,
C[C@H](Nc1ncnc2scnc12)c1cc2cccc(-c3cnn(C)c3)c2c(=O)n1C [Compound 82],1 to 10 µM,1 to 10 µM,,IC50 [4]: 1 to 10 µM; EC50 ([3]; Between 100 nM and 1 μM): 100 to 1000 nM
C[C@H](Nc1ncnc2scnc12)c1cc2cccc(C=O)c2c(=O)n1-c1ccccc1 [Compound 83],1 to 10 µM,,< 100 nM,
C[C@H](Nc1ncnc2scnc12)c1cc2cccc(C(=O)N3CCOCC3)c2c(=O)n1-c1ccccc1 [Compound 86],,,,IC50 [4]: 1 to 10 µM
COc1ncc(-c2cccc3cc([C@H](C)Nc4ccnc5scnc45)n(-c4ccccc4)c(=O)c23)cn1 [Compound 89],1 to 10 µM,,< 100 nM,
C[C@H](Nc1ccnc2scnc12)c1cc2cccc(Cl)c2c(=O)n1-c1cccc(F)c1 [Compound 90],1 to 10 µM,,< 100 nM,
C[C@H](Nc1ncnc2scnc12)c1cc2cccc(-c3ccnnc3)c2c(=O)n1-c1ccccc1 [Compound 92],1 to 10 µM,,< 100 nM,
CCCCc1cccc2cc([C@H](C)Nc3ncnc4scnc34)n(-c3ccccc3)c(=O)c12 [Compound 96],1 to 10 µM,1 to 10 µM,< 100 nM,
Cc1sc2ncnc(N[C@@H](C)c3cc4cccc(Cl)c4c(=O)n3-c3ccccc3)c2c1C [Compound 97],,,,IC50 [4]: 1 to 10 µM; EC50 ([3]; Between 1 μM and 10 μM): 1000 to 10000 nM
C[C@H](Nc1ncnc2scc(-c3ccccc3)c12)c1cc2cccc(Cl)c2c(=O)n1-c1ccccc1 [Compound 98],,,,IC50 [4]: 1 to 10 µM
Cc1cccc2cc([C@H](C)Nc3ncnc4scnc34)n(-c3cccc(F)c3)c(=O)c12 [Compound 100],1 to 10 µM,,< 100 nM,
C[C@H](Nc1ncnc2scnc12)c1cc2cccc(Cl)c2c(=O)n1-c1ccon1 [Compound 105],,,,"IC50 [5]: < 100 nM; IC50 [6, 7]: 100 to 1000 nM"
Cc1ncc(-c2cccc3cc([C@H](C)Nc4ncnc5scnc45)n(-c4ccon4)c(=O)c23)cn1 [Compound 107],,,,"IC50 [5]: < 100 nM; IC50 [6, 7]: 100 to 1000 nM"
CC(C)n1c([C@H](C)Nc2ncnc3scnc23)cc2cccc(-c3ccnnc3)c2c1=O [Compound 108],,,,IC50 [5]: < 100 nM; IC50 [6]: 1000 to 10000 nM
C[C@H](Nc1ncnc2scnc12)c1cc2cccc(-c3cncc(N)c3)c2c(=O)n1-c1ccccc1 [Compound 109],1 to 10 µM,,,"IC50 [5]: < 100 nM; IC50 [6, 7]: 100 to 1000 nM"
